Data: patent US12466810B2, “N-(5-(6-ethoxypyrazin-2-yl)pyridin-2-yl)-4-(2-(methylsulfonamido)pyrimidin-4-yl) tetrahydro-2H-pyran-4-carboxamide derivatives and related compounds as human CTPS1 inhibitors for the treatment of proliferative diseases” (Step Pharma S.A.S., priority 2019, dated 2025)

Tests used:
[1] = tested on: Human CTPS1 Versus CTPS2; experiment: RapidFire/MS-based enzyme selectivity assay, human CTPS1 versus CTPS2; assay type: biochemical; settings: RapidFire/MS IC50s
Method: Human CTPS1 Versus CTPS2 Selectivity Assessment by RapidFire/MS Analysis.
The enzyme inhibitory activities against each target isoform of interest may be determined for the compounds of the invention using an optimised RapidFire high-throughput mass spectrometry (RF/MS) assay format. RF/MS assays for both human CTPS1 and CTPS2 may be performed in assay buffer consisting of 50 mM HEPES (Merck), 20 mM MgCl2, 5 mM KCl, 1 mM DTT, 0.01% Tween-20, pH to 8.0 accordingly. Human full-length active C-terminal FLAG-His-tag CTPS1 (UniProtKB—P17812, CTPS1[1-591]-[…] (CTPS1[1-591]-SEQ ID NO: 1)) may be obtained from Proteros biostructures GmbH. Human full length active C-terminal FLAG-His-Avi tagged CTPS2 (UniProtKB—Q9NRF8, CTPS2 [1-586]—[…] (CTPS2 [1-586]-SEQ ID NO: 2)) may be obtained from Harker Bio.
Human CTPS (1 or 2) protein may be prepared in 1× assay buffer to the final working protein concentration required for the reaction. A 2 uL volume per well of 2×CTPS (1 or 2) protein may be mixed with 40 nL of compound using acoustic (ECHO) delivery and incubated for 10 minutes at 25° C. Each isoform enzymatic reaction may be subsequently initiated by addition of 2 uL per well of a 2× substrate mix in assay buffer. For hCTPS1: ATP (0.3 mM), UTP (0.2 mM), GTP (0.07 mM) and L-glutamine (0.1 mM). For hCTPS2: ATP (0.1 mM), UTP (0.04 mM), GTP (0.03 mM) and L-glutamine (0.1 mM). Each mixture may be incubated for an appropriate amount of time per isoform within the determined linear phase of the reaction at 25° C. A 60 uL volume of stop solution (1% formic acid with 0.5 uM ^13C9-^15N3-CTP in H2O) may be added and the plate immediately heat-sealed and centrifuged for 10 minutes at 4,000 rpm. Following centrifugation, plates may be loaded onto the Agilent RapidFire microfluidic solid phase extraction system coupled to an API4000 triple quadrupole mass spectrometer (RF/MS) for analysis.
In all cases, the enzyme converts UTP to CTP. Highly specific and sensitive multiple reaction monitoring (MRM) MS methods may be optimised for the detection of the enzymatic reaction product, CTP, and the stable isotope labelled product standard ^13C-^15N-CTP. Readout for data analysis may be calculated as the ratio between the peak area of the product CTP and the internal standard […]. For data reporting, the following equation may be used: […]
For each screening plate, the means of the negative (DMSO) and positive control values were used for the calculation of the respective assay window (S/B) and Z′ values. The median of the respective control values was used for calculation of percent inhibition according to the following equation: […]
(§1) Percentage inhibition was then plotted against compound concentration, and the 50% inhibitory concentration (IC50) was determined from the resultant concentration-response curve.
Fold selectivity between CTPS1 and CTPS2 was subsequently calculated according to the following equation: […]

[2] = biological target: T1, human CTPS1 (Homo sapiens, UniProt P17812); experiment: Human CTPS1 enzyme inhibition (ADP-Glo Max assay); assay type: biochemical; settings: 25° C., read-out: Human CTPS1 Enzyme Inhibition IC50, grouped by potency range
T1 construct: FLAG (GG linker + DYKDDDDK); His8 (GG linker + HHHHHHHH); purchased Proteros biostructures GmbH
T1 sequence (P17812 1-591): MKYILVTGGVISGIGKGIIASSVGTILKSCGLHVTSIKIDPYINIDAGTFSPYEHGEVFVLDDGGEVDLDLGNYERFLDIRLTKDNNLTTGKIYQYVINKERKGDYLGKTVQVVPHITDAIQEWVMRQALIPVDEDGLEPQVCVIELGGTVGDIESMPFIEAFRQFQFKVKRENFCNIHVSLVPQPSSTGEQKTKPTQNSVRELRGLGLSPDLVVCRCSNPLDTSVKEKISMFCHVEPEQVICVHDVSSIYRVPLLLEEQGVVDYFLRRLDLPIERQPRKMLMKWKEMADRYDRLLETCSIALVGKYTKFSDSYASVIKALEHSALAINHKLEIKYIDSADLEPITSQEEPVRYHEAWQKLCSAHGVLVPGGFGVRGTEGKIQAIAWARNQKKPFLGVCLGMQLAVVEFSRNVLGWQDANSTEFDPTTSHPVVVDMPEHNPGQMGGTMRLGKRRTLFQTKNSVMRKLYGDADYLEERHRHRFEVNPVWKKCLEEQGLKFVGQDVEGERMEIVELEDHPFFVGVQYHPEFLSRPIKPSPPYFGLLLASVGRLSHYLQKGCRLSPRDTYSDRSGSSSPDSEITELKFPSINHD
Method: The enzyme inhibitory activities of compounds invented against the target of interest were determined using the ADP-Glo™ Max assay (Promega, UK). Assays for human CTPS1 were performed in 1× assay buffer containing 50 mM Tris, 10 mM MgCl2, 0.01% Tween-20, pH to 8.0 accordingly. Finally, immediately before use, L-cysteine was added to the 1× assay buffer to a final concentration of 2 mM. All reagents are from Sigma-Aldrich unless specified otherwise.
Human full length active C-terminal FLAG-Hiss-tag CTPS1 (UniProtKB—P17812, CTPS1[1-591]-[…] (CTPS1[1-591]-SEQ ID NO: 1)) was obtained from Proteros biostructures GmbH.
3× human CTPS1 protein was prepared in 1× assay buffer to the final working protein concentration required for the reaction. A 2 uL volume per well of 3× human CTPS1 protein was mixed with 2 uL per well of 3× test compound (compound prepared in 1× assay buffer to an appropriate final 3× compound concentration respective to the concentration response curve designed for the compounds under test) for 10 minutes at 25° C. The enzymatic reaction was then initiated by addition of a 2 uL per well volume of a pre-mixed substrate mix (UltraPure ATP from ADP-GIo™ Max kit (0.31 mM), GTP (0.034 mM), UTP (0.48 mM) and L-glutamine (0.186 mM)) and the mixture was incubated for an appropriate amount of time within the determined linear phase of the reaction at 25° C. under sealed plate conditions with constant agitation at 500 revolutions per minute (rpm). ADP-GIo™ Max reagent was added for 60 minutes (6 μL per well) and subsequently ADP-GIo™ Max development reagent was added for 60 minutes (12 uL per well) prior to signal detection in a microplate reader (EnVision® Multilabel Reader, Perkin Elmer). Following each reagent addition over the course of the assay, assay plates were pulse centrifuged for 30 seconds at 500 rpm.
In all cases, the enzyme converts ATP to ADP and the ADP-Glo™ Max reagent subsequently depletes any remaining endogenous ATP in the reaction system. The ADP-Glo™ Max detection reagent converts the ADP that has been enzymatically produced back into ATP and using ATP as a substrate together with luciferin for the enzyme luciferase, light is generated which produces a detectable luminescence. […] The percentage inhibition produced by each concentration of compound was calculated using the equation shown below: […]
as §1

Structure (SMILES)	Fold selectivity between CTPS1 and CTPS2 (CTPS1) [1]	IC50 [2] [nM]
CCOc1cncc(-c2ccc(C(=O)NC3(c4ccnc(NS(=O)(=O)C5CC5)n4)CCOCC3)nc2)n1 [P249, N-(4-(2-(cyclopropanesulfonamido)pyrimidin-4-yl)tetrahydro-2H-pyran-4-yl)-5-(6-ethoxypyrazin-2-yl)picolinamide]	+++ (>60 fold (+++))	100 to 1000
CCOc1cncc(-c2ccc(NC(=O)C3(c4ccnc(NS(=O)(=O)CC(C)C)n4)CCOCC3)nc2)n1 [P250, N-(5-(6-ethoxypyrazin-2-yl)pyridin-2-yl)-4-(2-((2-methylpropyl)sulfonamido)pyrimidin-4-yl)tetrahydro-2H-pyran-4-carboxamide]	+++ (>60 fold (+++))	100 to 1000
CCOc1cncc(-c2ccc(NC(=O)C3(c4nccc(NS(=O)(=O)C5CC5)n4)CCN(C)CC3)nc2)n1 [P319, 4-(4-(cyclopropanesulfonamido)pyrimidin-2-yl)-N-(5-(6-ethoxypyrazin-2-yl)pyridin-2-yl)-1-methylpiperidine-4-carboxamide]	+++ (>60 fold (+++))	≤ 100

Further lines, results first:

Fold selectivity between CTPS1 and CTPS2 (CTPS1) [1]	IC50 [2] [nM]	Structure (SMILES)
+++ (>60 fold (+++))	100 to 1000	CCOc1cncc(-c2ccc(NC(=O)C3(c4ccnc(NS(=O)(=O)C5CCCC5)n4)CCOCC3)nc2)n1 [P245, 4-(2-(cyclopentanesulfonamido)pyrimidin-4-yl)-N-(5-(6-ethoxypyrazin-2-yl)pyridin-2-yl)tetrahydro-2H-pyran-4-carboxamide]
+++ (>60 fold (+++))	100 to 1000	CCOc1cncc(-c2ccc(NC(=O)C3(c4ccnc(NS(=O)(=O)C(C)(C)C)n4)CCOCC3)nc2)n1 [P246, 4-(2-((1,1-dimethylethyl)sulfonamido)pyrimidin-4-yl)-N-(5-(6-ethoxypyrazin-2-yl)pyridin-2-yl)tetrahydro-2H-pyran-4-carboxamide]
+++ (>60 fold (+++))	100 to 1000	CCOc1cncc(-c2ccc(NC(=O)C3(c4ccnc(NS(=O)(=O)C5(C)CC5)n4)CCOCC3)nc2)n1 [P247, N-(5-(6-ethoxypyrazin-2-yl)pyridin-2-yl)-4-(2-((1-methylcyclopropane)-1-sulfonamido)pyrimidin-4-yl)tetrahydro-2H-pyran-4-carboxamide]
+++ (>60 fold (+++))	≤ 100	O=C(Nc1ccc(-c2cncc(C3CC3)n2)cn1)C1(c2ccnc(NS(=O)(=O)C3CC3)n2)CCOCC1 [P252, 4-(2-(cyclopropanesulfonamido)pyrimidin-4-yl)-N-(5-(6-cyclopropylpyrazin-2-yl)pyridin-2-yl)tetrahydro-2H-pyran-4-carboxamide]
++ (>30-60 fold (++))	≤ 100	O=C(Nc1ccc(-c2cncc(Cl)c2)cn1)C1(c2ccnc(NS(=O)(=O)C3CC3)n2)CCOCC1 [P253, N-(5′-chloro-[3,3′-bipyridin]-6-yl)-4-(2-(cyclopropanesulfonamido)pyrimidin-4-yl)tetrahydro-2H-pyran-4-carboxamide]
